Tests used:
[1] = system: NASH-B6 mice; assay: Body weight, adiposity and food intake, 8 weeks in NASH-B6 mice (Example 6); format: in vivo; conditions: liraglutide 0.02 mg/kg/day, 8 weeks (FIG. 13B)
Description: Male C57BL/6NTac mice (Taconic, USA) were fed with the GAN diet (D09100310 Research Diet) 31 weeks prior to study start to induce NASH pathology (NASH-B6 model). Prior to treatment, blood was collected by retro-orbital sinus puncture after a 6 h-fasting period to measure plasma ALT, AST, TIMP Metallopeptidase Inhibitor 1 (TIMP1, a surrogate marker of liver fibrosis). Blood glucose was measured directly from the tail vein using a WellionVet glucometer (CALEA) after a 6 h-fasting period. Ketone bodies (KB) was also measured directly from the tail vein using a FreeStyle Optium Neo ketometer. Mice were randomized into treatment groups (n=10/group) based on body weight, glycemia, ketonemia and plasma ALT, AST and TIMP1. They received either vehicles, elafibranor (3 mg/kg/day, per os), liraglutide (0.01 mg/kg, BID, SC) or both elafibranor and liraglutide for 8 weeks. To avoid GLP-1 receptor agonist-induced hypophagia, an up-titration protocol was applied for liraglutide during the first 3 weeks of treatment (starting with 0.001 mg/kg BID). Vehicle-dosed chow-fed mice served as additional controls (R03-10 U8211G10R, SAFE).
Body weight and food intake were monitored each day during the treatment period. On the last day of treatment, serum samples were obtained after retro-orbital sinus puncture blood sampling and mice were sacrificed. […]

[2] = system: DIO-NASH mice; assay: Hepatic triglyceride content, 40 days in DIO-NASH mice (Example 1); format: in vivo; conditions: ELA 10 mg/kg/day, SEMA 10 nmol/kg/day, 40 days (FIG. 3)
Description: (§1) The effects of elafibranor alone, semaglutide alone and the combination of both were assessed in DIO-NASH mice (C57BL6JRj mice fed with a Amylin Liver NASH Model diet (AMLN) (Research Diet, 40% fat (18% trans-fat), 40% carbohydrate (20% fructose), and 2% cholesterol) (36 weeks prior to study start). 41 weeks old male DIO-NASH mice were fed a vehicule (n=12), or vehicule supplemented with elafibranor (10 mg/kg/day), or semaglutide alone (10 nmol/kg) (titration to final dose over 5 days using increments of 0.08 mg/mL) or in combination (n=12 per group).
On the last day of treatment, plasma samples were obtained after cardiac puncture blood sampling and mice were sacrificed. The liver was rapidly excised for biochemical and histological analyses.
Approximately 100 mg of frozen liver tissue were homogenized with a tissue homogenizer (Precellys®24, Bertin Technologies, France) in 150 mM NaCl buffer, containing 15.4 mM NaN3. Lipid fractions in homogenates were extracted with chloroform—methanol (2:1, v/v) followed by measurement of the triglycerides (Biolabo cat #80019).

[3] = system: DIO-NASH mice; assay: Plasma ALT and CRP in DIO-NASH mice, low/high dose semaglutide (Example 7); format: in vivo
Description: (§2) The effects of elafibranor alone, semaglutide (low and high doses) alone and their combination were assessed in DIO-NASH mice (C57BL6JRj mice fed with a Amylin Liver NASH Model diet (AMLN) (Research Diet, 40% fat (18% trans-fat), 40% carbohydrate (20% fructose), and 2% cholesterol) (35 weeks prior to study start). Mice with biopsy confirmed steatosis (score≥2) and fibrosis (score≥1) were randomized into treatment groups (n=12 per group). Mice received either vehicles, elafibranor (10 mg/kg/day, per os), low-dose semaglutide (0.3 nmol/kg/day, SC), high-dose semaglutide (10 nmol/kg/day, SC) or elafibranor (10 mg/kg/day) and semaglutide (0.3 nmol/kg/day) in combination.
On the last treatment day, plasma samples were obtained after cardiac puncture blood sampling and mice were sacrificed. The liver was rapidly excised for transcriptomic analyses.
Alanine aminotransferase (ALT) level was measured using Cobas™ C-501 autoanalyzer according to the manufacturer's instructions. C-reactive protein (CRP) concentration was measured by ELISA (Mouse C-Reactive Protein/CRP Immunoassay MCRP00, R&D Systems).

[4] = system: TNFα secretion in LPS-activated macrophages (THP-1); assay: TNFα secretion in LPS-activated THP-1 macrophages, combination matrix, HTRF (Example 4); format: cell-based, Human; conditions: GLP-1 receptor agonist alone; LPS-activated THP1 macrophages (FIGS. 11A-B)
Description: Human_THP-1 monocytes were seeded at a density of 25,000 cells per well in 384-well plate in RPMI1640 (Gibco, 21875) supplemented with 10% FBS, 1% Penicillin-streptomycin (Gibco, 15140122) and 25 mM Hepes (Gibco, 15630080) and differentiated into macrophages using PMA (Phorbol 12-myristate 13-acetate, Sigma, P8139) at the final concentration of 100 ng/ml for 24 hours.
A 2 component combination matrix was prepared. ELA and GLP-1 receptor agonists stocks were serially diluted in DMSO in 3-points series in a row (ELA) and a 8-points series in a column of a 96-well plate for GLP1RA. Subsequently, the 3×8 combination matrix was generated by 1:1 mixing of all single agent concentrations.
After 24 hrs with PMA, medium was removed, and replaced by serum free RPMI. […]
Synergism between compounds was determined using the Excess Over Bliss (EOB) method.
The values obtained in the TNFα HTRF assay were first transformed into percentage inhibitions over LPS control. Then, using these percentage inhibitions, EOB were calculated. Expected Bliss additivism score (E) was firstly determined by the equation: E=(A+B)−(A×B) where A and B are the percentage inhibition of elafibranor (A) and GLP-1 analogue (B) at a given dose.
The total Bliss score was calculated by addition of all EOB.

[5] = system: DIO-NASH mice; assay: Glycemia (plasma glucose), 40 days in DIO-NASH mice (Example 1); format: in vivo; conditions: ELA 10 mg/kg/day, SEMA 10 nmol/kg/day, 40 days (FIG. 4)
Description: as §1
(§3) Sampling from tail vein were done during the protocol for, blood glucose, plasma insulin, alanine transaminase, aspartate transaminase, triglycerides, total cholesterol dosages.
The plasma glucose level was measured using the Randox kit for Daytona automate (Randox, cat #GL 3815) according to the manufacturer's recommendations. This method was based on a colorimetric assay without any deproteinization of the sample. Briefly, glucose oxidase digestion of the sample led to hydrogen peroxide synthesis. In the presence of phenol and 4-aminophenazone, the hydrogen peroxide was catalyzed by a peroxidase and formed a dye: the quinoneimin. The coloration intensity was directly proportional to the glucose concentration and was measured at 505 nm. Results were expressed in mg/dL.

[6] = system: DIO-NASH mice; assay: Liver transcriptomic and gene ontology analysis in DIO-NASH mice (Example 7); format: in vivo
Description: as §2, with “combination. […]” for “combination.”
Total RNA was isolated from mice livers using Nucleospin® 96 RNA kit (Macherey Nagel) following manufacturer's instructions. […] The parameters used are an end minimum quality level of 25 and a minimum read length of 50. The unaligned reads were aligned to the Mus musculus mm10 reference genome using the software STAR version 2.5.3. […] Briefly, the count matrix produced by FeatureCounts was analyzed by the DESeqDataSetFromMatrix( ) function followed by the DEseq( ) function from the DESeq2 library. […]
Each metascape analysis was exported as Excel file. The files were imported in R V using the read_excel function from the readxl library (version 1.3.1). […]

[7] = system: DIO-NASH mice; assay: Insulinemia (plasma insulin), 40 days in DIO-NASH mice (Example 1); format: in vivo; conditions: ELA 10 mg/kg/day, SEMA 10 nmol/kg/day, 40 days (FIG. 5)
Description: as §1, §3
The plasmatic insulin was measured using a solid phase two-site enzyme immunoassay from Crystal Chem Inc. (cat #90010). Briefly, 95 μL of guinea-pig anti-insulin serum and 5 μL of diluted sample (or standard) were dispensed per well into a 96-well plate. […] The reaction was then stopped by adding 100 μL of stop solution and absorbance was immediately measured at 450 nm (subtracting wave length: 630 nm). The intensity of the coloration was proportional to the amount of insulin initially present in the sample and was calculated using a standard serum. […]

[8] = system: DIO-NASH mice; assay: Histological assessment of NASH, 12 weeks in DIO-NASH mice (Example 3); format: in vivo; conditions: monotherapy low dose ELA 10 mg/kg/day or SEMA 0.3 nmol/kg/day
Description: Male C57BL/6JRj mice were fed with the AMLN diet 35 weeks prior to study start (DIO-NASH model). Mice with biopsy confirmed steatosis (score ≥2) and fibrosis (score ≥1) were randomized into treatment groups (n=12-14 per group). Mice received either vehicles, elafibranor (10 mg/kg/day, per os), semaglutide (0.3 nmol/kg/day, SC) or both elafibranor and semaglutide for 12 weeks. Suboptimal drug doses were used in this study. To avoid SEMA-induced hypophagia, an up-titration protocol was applied during the first 3 weeks of treatment.
On the last day of treatment, plasma samples were obtained after cardiac puncture blood sampling and mice were sacrificed. The liver was rapidly excised for histology and biochemical and transcriptomic analyses.
Liver sections were prepared and stained with hematoxylin eosin safranin (HES) as described in Example 1. The histological features of NASH (steatosis, ballooning, lobular inflammation and fibrosis) were assessed using the NASH Clinical Research Network Scoring System by operators blinded to the experimental groups (Kleiner 2005, Brunt 1999). Steatosis score, activity index (hepatocyte ballooning+lobular inflammation) and NAFLD activity score (NAS) were calculated. Number of inflammatory foci was counted per field using a 200× magnification.

| Compound | hypophagia (energy consumption) [1] | liver fat / hepatic triglyceride content [2] | decrease of plasma CRP relative to AMLN-fed vehicle group ([3]; high-dose semaglutide 10 nmol/kg/day SC (FIG. 18)) [%] | effect on plasma ALT ([3]; low dose semaglutide 0.3 nmol/kg/day SC (FIG. 17)) | effect on plasma CRP ([3]; low-dose semaglutide 0.3 nmol/kg/day SC (FIG. 18)) | maximal effect, TNFα inhibition [4] [%] | glycemia [5] | hepatic gene signature (gene ontology: inflammatory response, cytokine production, immune cell activation and migration) ([6]; high-dose semaglutide 10 nmol/kg/day (FIG. 19)) | hepatic gene signature (gene ontology: inflammatory pathways) ([6]; low-dose SEMA 0.3 nmol/kg/day (FIG. 19)) | insulinemia [7] | mice showing NAS reduction beyond 1 stage [8] |
| --- | --- | --- | --- | --- | --- | --- | --- | --- | --- | --- | --- |
| CCCCCCCCCCCCCCCC(=O)N[C@@H](CCC(=O)NCCCC[C@H](NC(=O)[C@H](C)NC(=O)[C@H](C)NC(=O)[C@H](CCC(N)=O)NC(=O)CNC(=O)[C@H](CCC(=O)O)NC(=O)[C@H](CC(C)C)NC(=O)[C@H](Cc1ccc(O)cc1)NC(=O)[C@H](CO)NC(=O)[C@H](CO)NC(=O)[C@@H](NC(=O)[C@H](CC(=O)O)NC(=O)[C@H](CO)NC(=O)[C@@H](NC(=O)[C@H](Cc1ccccc1)NC(=O)[C@@H](NC(=O)CNC(=O)[C@H](CCC(=O)O)NC(=O)[C@H](C)NC(=O)[C@@H](N)Cc1cnc[nH]1)[C@@H](C)O)[C@@H](C)O)C(C)C)C(=O)N[C@@H](CCC(=O)O)C(=O)N[C@@H](Cc1ccccc1)C(=O)N[C@H](C(=O)N[C@@H](C)C(=O)N[C@@H](Cc1c[nH]c2ccccc12)C(=O)N[C@@H](CC(C)C)C(=O)N[C@H](C(=O)N[C@@H](CCCNC(=N)N)C(=O)NCC(=O)N[C@@H](CCCNC(=N)N)C(=O)NCC(=O)O)C(C)C)[C@@H](C)CC)C(=O)O [liraglutide] | no hypophagia effect | – | – | – | – | – | – | – | – | – | – |
| semaglutide: commercially available GLP-1 receptor agonist | – | significant beneficial effect | 43 | inefficient | inefficient | 29 | no beneficial effect | reverted the pathological signature | inefficient | significant beneficial effect | None of the mice |

— patent US12458612B2, “Combination therapy comprising compounds of formula (I) and GLP-1 receptor agonists” (GENFIT, priority 2019, dated 2025)
